Values of other authors, collected in EP2018866A1, “Pharmaceutical compositions containing voriconazole” (SANDOZ AG, priority 2007, dated 2009).
≈ marks a conversion by molar mass, not a printed value. Read-outs that look alike come from different tables or passages of the source.

- aqueous solubility (at a pH 3): 200 µg/mL (≈ 573 µM)
- aqueous solubility (at a pH 7): 610 µg/mL (≈ 1750 µM)
Compound: C[C@@H](c1ncncc1F)[C@](O)(Cn1cncn1)c1ccc(F)cc1F [Voriconazole, (2R,3S)-2-(2,4-Difluorophenyl)-3-(5-fluoro-4-pyrimidinyl)-1-(1H-1,2,4-triazol-1-yl)-butan-2-ol]
